Key:
uterus weight = test: Estrogenic activity in ovariectomized rats, oral administration (uterus weight); type: in vivo, Wistar rats; conditions: for Uterus Weight UVD (Uterus Doubling Dose vs. OVX): treatment days 1-3, sacrifice day 4
Protocol: (§1) Table 1 illustrates the estrogenic activity in the case of oral administration and liver toxicity (hepatic effects) based on data of selected compounds in in-vivo tests with rats.
(§2) Adult Wistar rats are ovariectomized and are brought into the test after a 14-day waiting period. The animals are then treated for over three days (days 1-3) and then sacrificed (day 4). Then, the organ weights are determined and estrogen-modulated factors of hepatic secretion in serum are determined, which in the rat are the increase of angiotensinogen and the drop in total cholesterol and HDL cholesterol.

[1] = tested on: angiotensinogen, total cholesterol and HDL cholesterol in serum; test: Hepatic effects in ovariectomized rats (estrogen-modulated factors of hepatic secretion in serum); conditions: for Angiotensin 1 ED50 (dose which produces an increase by 50% vs. OVX control) / HDL Cholesterol ED50 (dose which produces a drop by 50% vs. OVX control) / Total Cholesterol ED50 (dose which produces a drop by 50% vs. OVX control): oral, days 1-3, serum
Protocol: as §1, §2

Human Carboanhydrase I = Human Carboanhydrase I (Homo sapiens, UniProt P00915); test: Inhibition of carboanhydrase I (CO2 hydration); type: biochemical; conditions: read-out: CAI IC50
Protocol: Carboanhydrases catalyze the CO2 hydration.
Test preparation: A constant CO2 stream is directed by a buffer that was mixed with carboanhydrase I. The time that is required to reduce the pH within defined limits is a measuring parameter. This parameter reflects the formation of H2CO3 in the medium. IC50 inhibiting values are determined by test substances being pipetted into the test preparation.

erythrocytes = test: Binding to erythrocytes: displacement of 14C-estradiol sulfamate; design: species or system Human; conditions: for RBA to Erythrocytes: human blood, relative to estradiol-3-sulfamate = 100; for bonds to erythrocytes (in words): m-substituted compounds
Protocol: The SO2—NH2 group of the substances according to the invention can result in a concentration in erythrocytes by binding to carboanhydrases. The displacement of estradiol-3-sulfamate from the erythrocyte bond by test substances is measured.
Test preparation: Human blood is mixed with a mixture that consists of ^14C-labeled and unlabeled estradiol sulfamate. The erythrocytes are saturated at the selected working point, and the distribution in plasma/erythrocytes is 40:60. A second blood sample is mixed with a mixture that consists of ^14C-labeled estradiol sulfamate and unlabeled test substance. The relative binding affinity is calculated from the proportion of ^14C-labeled estradiol sulfamate in plasma: higher proportion=strong displacement of ^14C-estradiol sulfamate from the erythrocytes by the test substance=high binding affinity.

uterus and vagina weight = test: Interaction of estrogens with progesterone in uterus and vagina of ovariectomized guinea pigs; type: in vivo; conditions: OVX guinea pigs, 7 days s.c., with 3.0 mg progesterone per animal per day
From the text: Adult guinea pigs were ovariectomized and treated for 2 weeks after this operation over 7 days with estradiol or estriol over a large dose range. […] The effects of this treatment on the genital organs was raised on the 8th test day.

[2] = female, Wistar, rat, in vivo, 3 days
[3] = rats, oral, compared with compound 10 or compound 1

Human Carboanhydrase I, sequence (P00915 whole entry): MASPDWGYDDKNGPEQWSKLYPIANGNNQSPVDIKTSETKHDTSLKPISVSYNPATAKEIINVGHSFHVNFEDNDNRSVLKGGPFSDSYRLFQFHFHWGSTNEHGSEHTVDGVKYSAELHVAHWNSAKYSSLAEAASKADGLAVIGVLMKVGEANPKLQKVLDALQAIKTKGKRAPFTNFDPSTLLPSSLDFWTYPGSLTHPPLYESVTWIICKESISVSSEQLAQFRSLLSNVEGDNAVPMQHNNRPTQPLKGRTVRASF

| Structure (SMILES) | Uterus Weight UVD (Uterus Doubling Dose vs. OVX) (uterus weight; OVX rats, oral) [μg/T/T] | Angiotensin 1 ED50 (dose which produces an increase by 50% vs. OVX control) ([1]; OVX rats) [μg/T/T] | HDL Cholesterol ED50 (dose which produces a drop by 50% vs. OVX control) ([1]; OVX rats) [μg/T/T] | Total Cholesterol ED50 (dose which produces a drop by 50% vs. OVX control) ([1]; OVX rats) [μg/T/T] | rel. hep. Akt. (relative hepatic activity vs. uterotropic activity), Angiotensin 1 [1, 2] | rel. hep. Akt. (relative hepatic activity vs. uterotropic activity), HDL Cholesterol [1, 2] | rel. hep. Akt. (relative hepatic activity vs. uterotropic activity), Total Cholesterol [1, 2] | IC50 (Human Carboanhydrase I) [nM] | estrogenic activity in the case of oral administration (uterus weight; [3]) | oral bioavailability (uterus weight; [3]) | RBA to Erythrocytes (erythrocytes) | bonds to erythrocytes (in words) (erythrocytes) | increase of the uterus weight (doubling) (uterus weight; OVX rats, estriol even at very high dosages) | uterotropic actions in combination with progesterone (uterus and vagina weight; uterus) | increase in weight of the vagina in combination with progesterone (uterus and vagina weight; vagina) | rel. hep. Akt. (relative hepatic activity vs. uterotropic activity), HDL Cholesterol ([1]; OVX rats, HDL cholesterol ED50 relative to UVD) | rel. hep. Akt. (relative hepatic activity vs. uterotropic activity), Angiotensin 1 ([1]; OVX rats, angiotensin 1 ED50 relative to UVD) | rel. hep. Akt. (relative hepatic activity vs. uterotropic activity), Total Cholesterol ([1]; OVX rats, total cholesterol ED50 relative to UVD) |
| --- | --- | --- | --- | --- | --- | --- | --- | --- | --- | --- | --- | --- | --- | --- | --- | --- | --- | --- |
| C[C@]12CC[C@@H]3c4ccc(O)cc4CC[C@H]3[C@@H]1C[C@@H](O)[C@@H]2OC(=O)c1ccc(S(N)(=O)=O)cc1 [Compound 1, 3,16α-Dihydroxyestra-1,3,5(10)-trien-17β-yl 4′-sulfamoylbenzoate] | 162.6 | 17.4 | 45.9 | 39.9 | 0.12 | 0.28 | 0.25 | 200 | – | – | – | – | – | – | – | – | – | – |
| C[C@]12CC[C@@H]3c4ccc(O)cc4CC[C@H]3[C@@H]1C[C@@H](O)[C@@H]2OC(=O)c1cccc(S(N)(=O)=O)c1 [Compound 7, 3,16α-Dihydroxyestra-1,3,5(10)-trien-17β-yl 3′-sulfamoylbenzoate] | 137.5 | 8.9 | 6.0 | 4.8 | 0.06 | 0.04 | 0.03 | 600 | higher estrogenic activity | higher | 0.5 | only very weak bonds were detected | – | – | – | – | – | – |
| C[C@]12CC[C@@H]3c4ccc(O)cc4CC[C@H]3[C@@H]1C[C@@H](OC(=O)c1cccc(S(N)(=O)=O)c1)[C@@H]2O [Compound 10, 3,17β-Dihydroxyestra-1,3,5(10)-trien-16α-yl 3′-sulfamoylbenzoate] | 378.2 | 5.7 | 18.6 | 10.7 | 0.015 | 0.49 | 0.028 | 450 | – | – | 0.4 | only very weak bonds were detected | – | – | – | – | – | – |
| C[C@]12CC[C@@H]3c4ccc(O)cc4CC[C@H]3[C@@H]1C[C@@H](OC(=O)c1ccc(S(N)(=O)=O)cc1)[C@@H]2O [Compound 4, 3,17β-Dihydroxyestra-1,3,5(10)-trien-16α-yl 4′-sulfamoylbenzoate] | – | – | – | – | – | – | – | – | – | – | 2.6 | – | – | – | – | – | – | – |
| C[C@]12CC[C@@H]3c4ccc(O)cc4CC[C@H]3[C@@H]1C[C@@H](O)[C@@H]2O [Estriol] | >1000 | 7.6 | 110.7 | 79 | – | – | – | – | – | – | – | – | did not bring about a doubling of the uterus weight | clearly enhanced | not enhanced or is not enhanced to the same extent | <0.1 | <0.008 | <0.08 |
| C[C@]12CC[C@@H]3c4ccc(OS(N)(=O)=O)cc4CC[C@H]3[C@@H]1CC[C@@H]2O [Estradiol-3-sulfamate, reference compound] | – | – | – | – | – | – | – | 157 ± 10.6 | – | – | 100 | – | – | – | – | – | – | – |

— patent US20050277625A1, “Estriol and estetrol prodrugs” (priority 2004, published 2005)
